For 13 molecules, IC50 results are on record in US9765054B2, “Histone deacetylase inhibitors and compositions and methods of use thereof” (CHDI Foundation, Inc., priority 2011, dated 2017).

Experiment [1] has as its system cellular histone deacetylase enzymatic activity in Jurkat E6-1 cells. The experiment can be described thus: Inhibition of cellular HDAC activity, Boc-Lys(Tfa)-AMC substrate, in Jurkat E6-1 cells. It counts as cell-based. To be noted: Homo sapiens, Class IIa selective substrate Boc-Lys(Tfa)-AMC. From the text: The potency of Class IIa Histone Deacetylase (HDAC) inhibitors is quantified by measuring the cellular histone deacetylase enzymatic activity using the Class IIa selective substrate, Boc-Lys(Tfa)-AMC. After penetration in Jurkat E6-1 cells, the substrate is deacetylated to Boc-Lys-AMC. After cell lysis and cleavage by trypsin, the fluorophore AMC is released from the deacetylated substrate only. The fluoresence of the sample is directly related to the histone deacetylase activity in the sample.
Jurkat E6.1 Cell Culture and Plating.
Jurkat E6.1 cells are cultured according to standard cell culture protocols in Jurkat E6.1 Growth Media (RPMI without phenol red, 10% FBS, 10 mM HEPES, and 1 mM Sodium Pyruvate). Jurkat E6.1 cells are counted using a Coulter Counter and resuspended in Jurkat E6.1 growth media at a concentration of 75,000 cells/35 μl. 35 μl or 75,000 cells is seeded into Greiner microtitre assay plates. The plates are then incubated at 37° C. and 5% CO2 while other assay components are being prepared.
Serially Dilute HDAC Inhibitor Compounds.
Serial dilutions of the HDAC inhibitors and control reference compound (1-(5-(3-((4-(1,3,4-oxadiazol-2-yl)phenoxy)methyl)-1,2,4-oxadiazol-5-yl)thiophen-2-yl)-2,2,2-trifluoroethanone) are made by first resuspending the lyophilized compound to a final concentration of 10 mM in 100% DMSO. Stocks of 70 μl aliquots of the 10 mM compound in DMSO are prepared and stored at −20° C. From one stock aliquot of each compound to be tested and the reference compound, a 16-point serial dilution is prepared according to Table 7 using a 125 μl 16-channel Matrix multi-channel pipette.
2 μl (200×) of each diluted solution and each control (full activity: 100% DMSO alone or full inhibition 1 mM) is stamped into V-bottom polypropylene 384-well compound plates using either the Bravo, Janus, or […] 16-channel Matrix multi-channel pipette. Each well with the 200× compound solution is diluted 1:20 by the addition of 38 μl Jurkat assay buffer+DMSO (9.5% DMSO, RPMI without phenol red, 0.09% FBS, 9 mM Hepes, and 0.9 mM Sodium Pyruvate equilibrated to room temperature)
Prepare 5× (500 μM) Boc-Lys(Tfa)-AMC Substrate.
5× (500 μM) substrate is prepared just prior to the addition to the assay. The 5× substrate is prepared by diluting a 100 mM Boc-Lys(Tfa)-AMC in DMSO solution 1:200 by adding it drop-wise to Jurkat assay medium (RPMI without phenol red, 0.1% FBS, 10 mM Hepes, and 1 mM Sodium Pyruvate equilibrated to 37° C.) while vortexing at slow speed to prevent precipitation.
10 ml of 3× lysis buffer is prepared with 8.8 ml of 3× stock lysis buffer (50 mM Tris-HCl, pH 8.0, 137 mM NaCl, 2.7 mM KCl, 1 mM MgCl2, 1% Nonidet P40 Substitute equilibrated to room temperature) and 1.2 ml of 3 mg/ml Trypsin equilibrated to room temperature.
5 μl of each solution of 1:20 diluted compound from above is transferred to the Greiner microtitre assay plates with 75,000 cells/well using the Bravo. Cells are then incubated for 2 hours at 37° C. and 5% CO2. The assay is then started by adding 10 μl of 5× (500 μM) substrate to the assay plate using either the Bravo or 16-channel Matrix multi-channel pipette. The cells are then incubated for 3 hours at 37° C. and 5% CO2. Next, 25 μl of 3× lysis buffer is added to each well using either the 125 μl 16 channel pipette or the Bravo. The assay plate is then incubated overnight (15-16 hours) at 37° C. and 5% CO2. The following day, the plates are shaken on an orbital shaker for 1 minute at 900 rpm. Finally the top read fluorescence (Excitation: 355 nm, Emission: 460 nm) is measured using PerkinElmer EnVision.

Experiment [2] concerns the target human catalytic domain HDAC4 protein (Homo sapiens, UniProt P56524, A743G/DEL730-739/DEL742-742). The experiment can be described thus: Inhibition of HDAC4 catalytic domain enzymatic activity, Boc-Lys(Tfa)-AMC substrate, fluorescence.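 Also: trypsin releases AMC from deacetylated substrate, fluorescence tracks enzyme activity, 15 min reaction at 37 °C, 100% activity defined by DMSO-only control.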 Particulars: Class IIa selective substrate Boc-Lys(Tfa)-AMC, read-out: Biochemical HDAC-4 IC50.

By IC50 is commonly meant the concentration that inhibits the measured activity by half. As to `Cc1cnc(-c2ccc([C@H]3[C@H](C(=O)NO)[C@@H]3c3ccccc3)cc2)s1` [Compound 102, (1R,2R,3R)—N-hydroxy-2-(4-(5-methylthiazol-2-yl)phenyl)-3-phenylcyclopropanecarboxamide], the IC50 in experiment [1] was 440 nM; in experiment [2], 40 nM.
On to `O=C(NO)[C@@H]1[C@H](c2ccccc2)[C@H]1c1cccc(Br)c1` (racemic) [Compound 16b, (1R*,2R*,3R*)-2-(3-Bromophenyl)-N-hydroxy-3-phenylcyclopropanecarboxamide], for which the IC50 turned out to be 1410 nM in experiment [1] and 70 nM in experiment [2].
`O=C(NO)[C@@H]1[C@H](c2cccc(F)c2)[C@H]1c1ccnc(C2CC2)c1` [Compound 100b, (1S,2R,3R)-2-(2-Cyclopropylpyridin-4-yl)-3-(3-fluorophenyl)-N-hydroxycyclopropanecarboxamide]: the values for the IC50 in experiment [1] and in experiment [2] were 420 nM and 20 nM, respectively.
With `O=C(NO)[C@@H]1[C@H](c2ccccc2)[C@H]1c1ccc(-n2ccnc2)cc1` (racemic) [Compound 42, (1R*,2R*,3R*)-2-(4-(1H-imidazol-1-yl)phenyl)-N-hydroxy-3-phenylcyclopropanecarboxamide], the values for the half-maximal inhibitory concentration (IC50) in experiment [1] and in experiment [2] were 1630 nM and 200 nM, respectively.
As to `Cc1ccc([C@H]2[C@H](C(=O)NO)[C@@H]2c2ccccc2)cc1` (racemic) [Compound 18c, (1R*,2R*,3R*)—N-Hydroxy-2-phenyl-3-p-tolylcyclopropanecarboxamide], the half-maximal inhibitory concentration (IC50) in experiment [1] worked out at 2250 nM; in experiment [2] it was 150 nM.
In the case of `O=C(NO)[C@@H]1[C@H](c2ccccc2)[C@H]1c1cnc2ccccn12` [Compound 115, (1R,2R,3R)—N-hydroxy-2-(imidazo[1,2-a]pyridin-3-yl)-3-phenylcyclopropanecarboxamide], the figures for the IC50 in experiment [1] and in experiment [2] were 6660 nM and 550 nM, respectively.
Turning to `O=C(NO)[C@@H]1[C@H](c2ccccc2)[C@H]1c1ccc(-c2ccc3c(c2)CN(C2CC2)C3)cc1` (racemic) [Compound 52, (1R*,2R*,3R*)-2-(4-(2-cyclopropylisoindolin-5-yl)phenyl)-N-hydroxy-3-phenylcyclopropanecarboxamide], the IC50 in experiment [1] is 1790 nM; in experiment [2], 480 nM.
`O=C(NO)[C@H]1[C@H](c2cc(Cl)c3c(c2)OCCO3)[C@H]1c1ccccc1F` [Compound 25f, (1S,2R,3R)-2-(8-Chloro-2,3-dihydrobenzo[b][1,4]dioxin-6-yl)-3-(2-fluorophenyl)-N-hydroxycyclopropanecarboxamide]: the half-inhibitory concentration (IC50) in experiment [1] was found to be 240 nM; in experiment [2] it was 30 nM.
On to `O=C(NO)[C@H]1[C@H](c2cc(C3CC3)nc(C3CC3)c2)[C@H]1c1ccccc1F` [Compound 88, (1S,2R,3R)-2-(2,6-Dicyclopropylpyridin-4-yl)-3-(2-fluorophenyl)-N-hydroxycyclopropanecarboxamide], for which the values for the 50% inhibitory concentration (IC50) in experiment [1] and in experiment [2] were 1480 nM and 200 nM, respectively.
`CC(C)Oc1ccccc1[C@@H]1C(c2ccccc2)[C@H]1C(=O)NO` (mixture of isomers) [Compound 11a, (1R,2R,3R*)—N-Hydroxy-2-(2-isopropoxyphenyl)-3-phenylcyclopropanecarboxamide]: the IC50 in experiment [1] was found to be 50000 nM; in experiment [2] it was 20600 nM.
For the molecule `O=C(NO)[C@@H]1[C@H](c2ccccc2)[C@H]1c1ccc(-c2ncc(C(F)(F)F)cn2)cc1` [Compound 50e, (1R,2R,3R)-2-(4-(5-Trifluoromethylpyrimidin-2-yl)phenyl)-N-hydroxy-3-phenylcyclopropanecarboxamide], the concentration for half-maximal inhibition (IC50) amounted to 690 nM in experiment [1] and 180 nM in experiment [2].
Taken in the same sequence, the figures for `O=C(NO)[C@@H]1[C@H](c2ccccc2)[C@H]1c1ccc(NS(=O)(=O)C2CC2)cc1` (racemic) [Compound 22, (1R*,2R*,3R*)-2-(4-(cyclopropanesulfonamido)phenyl)-N-hydroxy-3-phenylcyclopropanecarboxamide] were 1320 nM and 50 nM.
Regarding `O=C(NO)[C@H]1[C@H](c2ccc(NCC(F)(F)F)nc2)[C@H]1c1ccccc1F` [Compound 106, (1S,2R,3R)-2-(2-Fluorophenyl)-N-hydroxy-3-(6-((2,2,2-trifluoroethyl)amino)pyridin-3-yl)cyclopropanecarboxamide], the figures for the half-maximal inhibitory concentration (IC50) in experiment [1] and in experiment [2] were 1410 nM and 170 nM, respectively.
